Assay results published in PubChem BioAssay (NCI).
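Cells were grown in 96-well plates and exposed to each compound for 48 hours at five concentrations; endpoints were interpolated linearly between bracketing concentrations, or set to the highest concentration if not reached. TGI: total growth inhibition.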

Tests used:
Assay in all cases: NCI tumour cell line growth inhibition, 48 h
OVCAR-4 ovarian = tested on: OVCAR-4 ovarian
MCF7 breast = tested on: MCF7 breast
SK-OV-3 ovarian = tested on: SK-OV-3 ovarian
HT29 colon = tested on: HT29 colon
SW-620 colon = tested on: SW-620 colon
OVCAR-5 ovarian = tested on: OVCAR-5 ovarian
UACC-62 melanoma = tested on: UACC-62 melanoma
UO-31 renal = tested on: UO-31 renal
HS 578T breast = tested on: HS 578T breast
COLO 205 colon = tested on: COLO 205 colon
MDA-MB-231 breast = tested on: MDA-MB-231 breast
TK-10 renal = tested on: TK-10 renal
A498 renal = tested on: A498 renal
A549 NSCLC = tested on: A549 NSCLC
ACHN renal = tested on: ACHN renal
SF-539 CNS = tested on: SF-539 CNS
HOP-62 NSCLC = tested on: HOP-62 NSCLC
SNB-75 CNS = tested on: SNB-75 CNS
EKVX NSCLC = tested on: EKVX NSCLC
SNB-19 CNS = tested on: SNB-19 CNS
IGROV1 ovarian = tested on: IGROV1 ovarian
HCT-116 colon = tested on: HCT-116 colon
M14 melanoma = tested on: M14 melanoma
T-47D breast = tested on: T-47D breast
U251 CNS = tested on: U251 CNS
SK-MEL-28 melanoma = tested on: SK-MEL-28 melanoma
HCC-2998 colon = tested on: HCC-2998 colon
NCI-H460 lung = tested on: NCI-H460 lung
KM12 colon = tested on: KM12 colon
CAKI-1 renal = tested on: CAKI-1 renal
SF-268 CNS = tested on: SF-268 CNS
MDA-MB-435 = tested on: MDA-MB-435
786-0 renal = tested on: 786-0 renal
NCI-H23 lung = tested on: NCI-H23 lung
LOX IMVI melanoma = tested on: LOX IMVI melanoma
DU-145 prostate = tested on: DU-145 prostate
SF-295 CNS = tested on: SF-295 CNS
HL-60(TB) leukemia = tested on: HL-60(TB) leukemia
RXF 393 renal = tested on: RXF 393 renal
UACC-257 melanoma = tested on: UACC-257 melanoma
OVCAR-8 ovarian = tested on: OVCAR-8 ovarian
SK-MEL-5 melanoma = tested on: SK-MEL-5 melanoma
MALME-3M melanoma = tested on: MALME-3M melanoma
OVCAR-3 ovarian = tested on: OVCAR-3 ovarian
HOP-92 NSCLC = tested on: HOP-92 NSCLC
SN12C renal = tested on: SN12C renal
NCI/ADR-RES ovarian = tested on: NCI/ADR-RES ovarian
NCI-H226 lung = tested on: NCI-H226 lung
HCT-15 colon = tested on: HCT-15 colon
NCI-H522 lung = tested on: NCI-H522 lung
BT-549 breast = tested on: BT-549 breast
PC-3 prostate = tested on: PC-3 prostate
MDA-N = tested on: MDA-N
MOLT-4 leukemia = tested on: MOLT-4 leukemia
K-562 leukemia = tested on: K-562 leukemia
CCRF-CEM leukemia = tested on: CCRF-CEM leukemia
SK-MEL-2 melanoma = tested on: SK-MEL-2 melanoma

SMILES: CC[C@]12C=CCN3CC[C@@]4(c5cc(Br)c(OC)cc5N(C)[C@H]4[C@@](O)(C(=O)NN)[C@@H]1O)[C@@H]32
- TGI (OVCAR-4 ovarian): > 100 µM
- TGI (MCF7 breast): > 100 µM
- TGI (SK-OV-3 ovarian): > 100 µM
- TGI (HT29 colon): > 100 µM
- TGI (SW-620 colon): > 100 µM
- TGI (OVCAR-5 ovarian): > 100 µM
- TGI (UACC-62 melanoma): > 100 µM
- TGI (UO-31 renal): > 100 µM
- TGI (HS 578T breast): > 100 µM
- TGI (COLO 205 colon): > 100 µM
- TGI (MDA-MB-231 breast): > 100 µM
- TGI (TK-10 renal): > 100 µM
- TGI (A498 renal): > 100 µM
- TGI (A549 NSCLC): > 100 µM
- TGI (ACHN renal): > 100 µM
- TGI (SF-539 CNS): 69.3 µM
- TGI (HOP-62 NSCLC): > 100 µM
- TGI (SNB-75 CNS): 43.6 µM
- TGI (EKVX NSCLC): > 100 µM
- TGI (SNB-19 CNS): > 100 µM
- TGI (IGROV1 ovarian): > 100 µM
- TGI (HCT-116 colon): > 100 µM
- TGI (M14 melanoma): > 100 µM
- TGI (T-47D breast): > 100 µM
- TGI (U251 CNS): > 100 µM
- TGI (SK-MEL-28 melanoma): > 100 µM
- TGI (HCC-2998 colon): > 100 µM
- TGI (NCI-H460 lung): > 100 µM
- TGI (KM12 colon): > 100 µM
- TGI (CAKI-1 renal): > 100 µM
- TGI (SF-268 CNS): > 100 µM
- TGI (MDA-MB-435): > 100 µM
- TGI (786-0 renal): > 100 µM
- TGI (NCI-H23 lung): > 100 µM
- TGI (LOX IMVI melanoma): > 100 µM
- TGI (DU-145 prostate): > 100 µM
- TGI (SF-295 CNS): > 100 µM
- TGI (HL-60(TB) leukemia): > 100 µM
- TGI (RXF 393 renal): 99.2 µM
- TGI (UACC-257 melanoma): > 100 µM
- TGI (OVCAR-8 ovarian): > 100 µM
- TGI (SK-MEL-5 melanoma): > 100 µM
- TGI (MALME-3M melanoma): > 100 µM
- TGI (OVCAR-3 ovarian): > 100 µM
- TGI (HOP-92 NSCLC): > 100 µM
- TGI (SN12C renal): > 100 µM
- TGI (NCI/ADR-RES ovarian): > 100 µM
- TGI (NCI-H226 lung): > 100 µM
- TGI (HCT-15 colon): > 100 µM
- TGI (NCI-H522 lung): > 100 µM
- TGI (BT-549 breast): > 100 µM
- TGI (PC-3 prostate): > 100 µM
- TGI (MDA-N): > 100 µM
- TGI (MOLT-4 leukemia): > 100 µM
- TGI (K-562 leukemia): > 100 µM
- TGI (CCRF-CEM leukemia): > 100 µM
- TGI (SK-MEL-2 melanoma): 70.6 µM
